Data from US10758639B2, “Methods for the treatment of peri-implantitis” (POLYPID LTD., priority 2014, dated 2020).
Values joined by “and” are separate entries in the source; they are usually repeats but may differ in a detail not shown here. Equal values may be shown once.

System: Staphylococcus aureus biofilm (ATCC 29213)
Experiment: MBEC P&G assay: eradication of an established (preformed) biofilm
Assay type: cell-based
Details: for Log Reduction (Log R): vs. GC (growth control)
Experimental: The effectiveness of tri-calcium phosphate granules coated with a matrix composition according to embodiments of the invention in eradicating established biofilm was measured using the MBEC™ (Minimum Biofilm Eradication Concentration) Physiology and Genetics Assay.
MBEC™ Test Method Overview: MBEC™ test method specifies the operational parameters required to grow and treat different bacterial biofilms in a high throughput screening assay. The assay device consists of a plastic lid with ninety-six (96) pegs and a corresponding receiver plate with ninety-six (96) individual wells that have a maximum 200 μL working volume. Biofilm is established on the pegs in a batch culture based model (i.e., no flow of nutrients into or out of an individual well) with gentle mixing. The established biofilm is transferred to a new receiver plate for disinfectant efficacy testing.
Test Organisms: Staphylococcus aureus (an osteomyelitis-related strains); source: ATCC 29213; Dilution/Challenge Media: 1,000×TSB+10% human serum 24 hrs; Growth Media/agar: Tryptic Soy Broth/Tryptic Soy agar for 24 hrs Aerobic cond.
TEST METHOD overview: The experimental process for high-throughput antimicrobial susceptibility testing using the hydroxyapatite coated MBEC™ P&G assay. This standard protocol was broken into a series of small steps, each of which is detailed in the sections below.
1. Culture/Inoculum Preparation:
Using a cryogenic stock (at −70° C.), a first sub-culture of Staphylococcus aureus was streaked out on OSA (organism specific agar). The plates were incubated at appropriate growth conditions for 20±2.0 hours and further stored at 4° C.
A second sub-culture taken from the first sub-culture was streaked out on OSA. The plates were incubated at appropriate growth conditions for 20±2.0 hours. An isolated colony from the second sub-culture was aseptically removed from the OSA plate and inoculated into 50 mL of sterile bacterial liquid growth broth, followed by incubation appropriate growth conditions for 20±2.0 hours (at 150 rpm).
The inoculum was adjusted to an approximate cell density of 10^6 CFU/mL by diluting in OSB according to table 1.
Samples (100 μL) of the diluted organism were used for an inoculum check by serially diluting and spot plating on OSA in triplicate.
Preparation of the Challenge Plate:
150 μL of the remaining diluted organism were placed in each of the corresponding wells of an MBEC™ P&G device except the sterility controls (Table 5). The device was placed on an orbital shaker (110 RPM) in a humidified incubator at 37±1° C.
Antimicrobial Challenge for Preformed Biofilm:
The biofilm formed on the lid of the MBEC device was rinsed by dipping the lid into saline (˜30 seconds) to remove planktonic cells. The lid was then put on top of the challenge plate and incubated on a rotary shaker at 110 rpm at 35±2° C. for 24±2 hours.
After incubation (specified above), planktonic cells were rinsed off the biofilm by dipping the lid into saline (˜20-30 seconds). The lid was then transferred to a neutralizer/recovery plate and put in a sonicator (˜30 minutes) to dislodge surviving biofilm.
Following sonication, 100 μL from each well of the MBEC™ plate, were put into the first 12 empty wells of the first row of a 96 well-micro titer plate and were further diluted by 10 fold down each of the 8 rows (10^0-10^7 dilution). 5 μL from each well were then used for spotting prepared OSA plates. The agar plates were incubated at 37±1° C. and counted after approximately 24-48 hours of incubation. The arithmetic mean of the number of colonies counted on the plates was calculated.
100 μL of the sterile neutralizer was added to each well of the recovery plate to top up the volume back to 200 μL. The refilled plate is incubated at 35±2° C. for 24±2 hours, after which the plates were analyzed using a plate reader.
The log density for one peg was calculated as follows:
LOG10 (CFU/peg)=LOG10 [(XB) (D)] where: X=mean CFU; B=volume plated (0.02 mL) and D=dilution. […]

Substance: Gentamicin [D]
- Average Log10 CFU/peg recoveries (0.5 μg): 3.48 Log10 CFU/peg
- Log10 CFU/peg recoveries, replicates 1-3 (0.5 μg): 3.90 Log10 CFU/peg and 2.90 Log10 CFU/peg and 3.64 Log10 CFU/peg
- Average Log10 CFU/peg recoveries (1.0 μg): 3.21 Log10 CFU/peg
- Log10 CFU/peg recoveries, replicates 1-3 (1.0 μg): 4.72 Log10 CFU/peg and 2.60 Log10 CFU/peg and 2.30 Log10 CFU/peg
- Average Log10 CFU/peg recoveries (2.0 μg): 1.69 Log10 CFU/peg
- Log10 CFU/peg recoveries, replicates 1-3 (2.0 μg): 2.30 Log10 CFU/peg and 0.00 Log10 CFU/peg and 2.78 Log10 CFU/peg
- Average Log10 CFU/peg recoveries (4.0 μg): 1.31 Log10 CFU/peg
- Log10 CFU/peg recoveries, replicates 1-3 (4.0 μg): 1.61 Log10 CFU/peg and 2.30 Log10 CFU/peg and 0.00 Log10 CFU/peg
- Average Log10 CFU/peg recoveries (8.0 μg): 0.00 Log10 CFU/peg
- Log10 CFU/peg recoveries, replicates 1-3 (8.0 μg): 0.00 Log10 CFU/peg
- Average Log10 CFU/peg recoveries (16 μg): 0.00 Log10 CFU/peg
- Log10 CFU/peg recoveries, replicates 1-3 (16 μg): 0.00 Log10 CFU/peg
- Average Log10 CFU/peg recoveries (32 μg): 0.00 Log10 CFU/peg
- Log10 CFU/peg recoveries, replicates 1-3 (32 μg): 0.00 Log10 CFU/peg
- Log Reduction (Log R) (0.5 μg): 1.11 LOG10
- Log Reduction (Log R) (1.0 μg): 1.38 LOG10
- Log Reduction (Log R) (2.0 μg): 2.90 LOG10
- Log Reduction (Log R) (4.0 μg): 3.29 LOG10
- Log Reduction (Log R) (8.0 μg): 4.59 LOG10
- Log Reduction (Log R) (16 μg): 4.59 LOG10
- Log Reduction (Log R) (32 μg): 4.59 LOG10
